According to PMC7377239, “Cardiovascular Effects of Polychlorinated Biphenyls and Their Major Metabolites” (Environmental Health Perspectives, 2020):
Like-named read-outs stand apart in the source and are kept apart here.

How the values were obtained:
[1] = tested on: iCell endothelial cells (human iPSC-derived ECs); test: High-content imaging cytotoxicity in iCell endothelial cells, 24 h; type: cell-based; conditions: Homo sapiens, Endothelial cell, 24 hr; for viability at 0.1 µM / activity at 0.1 µM: 0.10 µM
Method in brief: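 Human iPSC-derived endothelial cells (passages 1–5) were grown to a fibronectin-coated monolayer, then exposed 24 h at 37 °C with 0.5% DMSO vehicle. Staining was Hoechst 33342, MitoTracker Orange and calcein AM, read by high-content imaging. Point of departure came from 4-parameter logistic fits, with a 1-SD vehicle cutoff and 100 µM as the top concentration.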

[2] = tested on: iCell endothelial cells (human iPSC-derived ECs); test: Tube formation (tubulogenesis) assay in iCell endothelial cells, 18 h; type: cell-based; conditions: Homo sapiens, Endothelial cell, 18 hr; for activity at 0.1 µM: 0.10 µM
Method in brief: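 iCell ECs (passages 1–5) seeded 7,500 cells/well on reduced-growth-factor Geltrex in starvation medium, exposed overnight at 37°C to compounds in triplicate concentration–response (0.5% DMSO vehicle). Calcein AM staining, 4× imaging, angiogenesis image analysis; readouts normalized to vehicle, four-parameter logistic fit, POD at 1 SD of vehicle; 100 μM assigned NOAEL if no response.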

[3] = iPSC-EC, 0.00 µM control = 100.00, read-out: endo.cyto.24hr
[4] = iPSC-EC, 0.00 µM control = 100.00, read-out: endo.mito.24hr
[5] = iPSC-EC, 0.00 µM control = 100.00, read-out: endo.mitoint.24hr
[6] = iPSC-EC, 0.00 µM control = 100.00, read-out: endo.nma.24hr
[7] = iPSC-EC, 0.00 µM control = 100.00, read-out: endo.tc.24hrs
[8] = iPSC-EC tube formation, 0.00 µM control = 100.00, read-out: endo.mtl.18hr
[9] = iPSC-EC tube formation, 0.00 µM control = 100.00, read-out: endo.tlps.18hr
[10] = iPSC-EC tube formation, 0.00 µM control = 100.00, read-out: endo.tta.18hr
[11] = iPSC-EC tube formation, 0.00 µM control = 100.00, read-out: endo.ttl.18hr

Structure (SMILES): Oc1cc(Cl)c(-c2cc(Cl)ccc2Cl)cc1Cl [4-OH PCB52]
- viability at 0.01 µM [1, 3]: 96.8%
- activity at 0.01 µM [1, 4]: 96.3%
- activity at 0.01 µM [1, 5]: 90.5%
- activity at 0.01 µM [1, 6]: 104%
- viability at 0.01 µM [1, 7]: 96.8%
- viability at 0.1 µM [1, 3]: 94.9%
- activity at 0.1 µM [1, 4]: 94.5%
- activity at 0.1 µM [1, 5]: 89.8%
- activity at 0.1 µM [1, 6]: 104%
- viability at 0.1 µM [1, 7]: 94.9%
- viability at 1 µM [1, 3]: 101%
- activity at 1 µM [1, 4]: 101%
- activity at 1 µM [1, 5]: 88.2%
- activity at 1 µM [1, 6]: 103%
- viability at 1 µM [1, 7]: 101%
- viability at 10 µM [1, 3]: 98%
- activity at 10 µM [1, 4]: 98%
- activity at 10 µM [1, 5]: 98.3%
- activity at 10 µM [1, 6]: 103%
- viability at 10 µM [1, 7]: 98%
- viability at 100 µM [1, 3]: 42.3%
- activity at 100 µM [1, 4]: 39.7%
- activity at 100 µM [1, 5]: 51.4%
- activity at 100 µM [1, 6]: 89.3%
- viability at 100 µM [1, 7]: 49.3%
- minimal effective concentration ([1]; iPSC-EC, top concentration 100.00 µM, read-out: endo.cyto.24hr POD): 13.2 µM
- minimal effective concentration ([1]; iPSC-EC, top concentration 100.00 µM, read-out: endo.mito.24hr POD): 13.2 µM
- minimal effective concentration ([1]; iPSC-EC, top concentration 100.00 µM, read-out: endo.mitoint.24hr POD): 43.8 µM
- minimal effective concentration ([1]; iPSC-EC, top concentration 100.00 µM, read-out: endo.nma.24hr POD): 63.5 µM
- minimal effective concentration ([1]; iPSC-EC, top concentration 100.00 µM, read-out: endo.tc.24hrs POD): 16.6 µM
- activity at 0.01 µM [2, 8]: 114%
- activity at 0.01 µM [2, 9]: 107%
- activity at 0.01 µM [2, 10]: 144%
- activity at 0.01 µM [2, 11]: 144%
- activity at 0.1 µM [2, 8]: 119%
- activity at 0.1 µM [2, 9]: 109%
- activity at 0.1 µM [2, 10]: 116%
- activity at 0.1 µM [2, 11]: 125%
- activity at 1 µM [2, 8]: 111%
- activity at 1 µM [2, 9]: 129%
- activity at 1 µM [2, 10]: 118%
- activity at 1 µM [2, 11]: 124%
- activity at 10 µM [2, 8]: 84.5%
- activity at 10 µM [2, 9]: 70.9%
- activity at 10 µM [2, 10]: 86%
- activity at 10 µM [2, 11]: 85.7%
- activity at 100 µM [2, 8]: 0%
- activity at 100 µM [2, 9]: 0%
- activity at 100 µM [2, 10]: 0%
- activity at 100 µM [2, 11]: 0%
- minimal effective concentration ([2]; iPSC-EC tube formation, top concentration 100.00 µM, read-out: endo.mtl.18hr POD): 9.52 µM
- minimal effective concentration ([2]; iPSC-EC tube formation, top concentration 100.00 µM, read-out: endo.tlps.18hr POD): 8.32 µM
- minimal effective concentration ([2]; iPSC-EC tube formation, top concentration 100.00 µM, read-out: endo.tta.18hr POD): 15 µM
- minimal effective concentration ([2]; iPSC-EC tube formation, top concentration 100.00 µM, read-out: endo.ttl.18hr POD): 15.2 µM

Structure (SMILES): Oc1cc(Cl)c(-c2cc(Cl)ccc2Cl)cc1Cl [4-OH-PCB 52]
- minimal effective concentration ([1]; endothelial cells (endo), cyto, read-out: POD endo.cyto.24hr): 13.2 µM
- minimal effective concentration ([1]; endothelial cells (endo), mito, read-out: POD endo.mito.24hr): 13.2 µM
- minimal effective concentration ([1]; endothelial cells (endo), mitoint, read-out: POD endo.mitoint.24hr): 43.8 µM
- minimal effective concentration ([1]; endothelial cells (endo), nma, read-out: POD endo.nma.24hr): 63.5 µM
- minimal effective concentration ([1]; endothelial cells (endo), tc, read-out: POD endo.tc.24hr): 16.6 µM
- minimal effective concentration ([2]; endothelial cells (endo), tube formation mtl, read-out: POD endo.mtl.18hr): 9.52 µM
- minimal effective concentration ([2]; endothelial cells (endo), tube formation tlps, read-out: POD endo.tlps.18hr): 8.32 µM
- minimal effective concentration ([2]; endothelial cells (endo), tube formation tta, read-out: POD endo.tta.18hr): 15 µM
- minimal effective concentration ([2]; endothelial cells (endo), tube formation ttl, read-out: POD endo.ttl.18hr): 15.2 µM
